Experimental data taken from patent US20140350014A1, “COMPOUNDS FOR INHIBITING THE INTERACTION OF BCL2 WITH BINDING PARTNERS” (NOVARTIS AG, priority 2011, published 2014).

Tests used:
[1] = biological target: BCL-2 binding to BAD peptide (Homo sapiens, UniProt P10415); experiment: BCL2 SPR solution inhibition assay, BAD peptide surface (Biacore A100); details: read-out: BCL2_SPR IC50 BAD
Source text: (§1) 33The present method includes utility of a Surface plasmon resonance (SPR)-based biosensor (Bia34core™′ GE Healthcare, Uppsala, Sweden) to characterize BCL-2 inhibitors. 35
(§2) 36Biacore™ utilizes the phenomenon of surface plasmon resonance (SPR) to detect and measure 37binding interactions. In a typical Biacore experiment, one of the interacting molecules (ligand) is i38mmobilized on a flexible dextran matrix while the interacting partner (analyte) is allowed to fl39ow across that surface. A binding interaction results in an increase in mass on the sensor surface 40and a corresponding direct change in the refractive index of the medium in the vicinity of the 41sensor surface. Changes in refractive index or signal are recorded in resonance units (R.U.) Signal 42changes due to association and dissociation of complexes are monitored in a non-invasive manne43r, continuously and in real-time, the results of which are reported in the form of a sensorgram.44
(§3) The SPR assay is con45figured to examine solution inhibition of BCL-2 binding to peptide derivatized sensor surfa46ces to generate IC50 values as a measure of inhibitor potency.
(§4) Biacore™ A100 (GE Healthcare, Uppsala, Sweden) was used to conduct all experiments reported herein. Sensor surface preparation and all interaction analyses experiments were performed at 25° C. Reagents were purchased from GE Healthcare. Running buffer containing 10 mM Hepes, pH7.4, 150 mM sodium chloride, 1.25 mM Dithiothreitol, 3% Dimethyl sulfoxide and 0.05% polysorbate 20 were utilized throughout all analyses.
(§5) Biotinylated BAK, BAD and NOXA peptides were diluted to 10 nM in running buffer and captured onto a sensor surface pre-derivatized with streptavidin (sensor chip SA) to peptide surface densities in the range 50-100 R.U. Peptide captured surfaces were blocked with 500 μM PEO2-Biotin.
(§6) Interaction analyses were performed by first equilibrating each sample within a 6 point three fold compound dilution series in the range 16 μM to […] with 56 nM BCL-2 for one hour during instrument start-up procedures. Protein compound mixtures were then injected over each peptide surface in parallel for 60 seconds at a flow-rate of 30 μL/min. 56 nM BCL-2 control samples were also prepared and run at regular intervals during the assay. Surface regeneration was performed at the end of each analysis cycle by two 30 second injections of 10 mM Glycine, pH 2.5, 1M Sodium Chloride, 0.05% polysorbate 20. Samples and control compound samples were run in duplicate and controls are also run at regular intervals during the assay to monitor surface and assay performance.
(§7) Data analyses are carried out using Biacore™ A100 evaluation software v1.1 to validate assay quality. Binding level report points were used relative to BCL-2 control samples to calculate % inhibition values for each compound protein mixture. […] The range of data shown in table 1 represents the high and low IC50 values obtained from multiple experiments.

[2] = biological target: BCL-2 binding to BAK peptide (Homo sapiens, UniProt P10415); experiment: BCL2 SPR solution inhibition assay, BAK peptide surface (Biacore A100); details: read-out: BCL2_SPR IC50 BAK
Source text: as §1, §2, §3, §4, §5, §6, §7

BCL-2 binding to BAD peptide, sequence (P10415 whole entry): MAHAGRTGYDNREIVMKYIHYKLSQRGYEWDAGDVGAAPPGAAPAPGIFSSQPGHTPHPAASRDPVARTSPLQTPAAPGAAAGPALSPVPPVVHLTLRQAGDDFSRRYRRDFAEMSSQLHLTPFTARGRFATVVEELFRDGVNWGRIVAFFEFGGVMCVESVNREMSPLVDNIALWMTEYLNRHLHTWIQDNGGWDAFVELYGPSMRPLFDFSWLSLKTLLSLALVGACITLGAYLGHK
BCL-2 binding to BAK peptide, sequence (P10415 whole entry): as above

Compound	IC50 [1] [nM]	IC50 [2] [nM]
CCCCN(CCCC)C(=O)c1cc(C)n(-c2ccc(-c3c(C)noc3C)cc2C(=O)N2Cc3ccccc3C[C@H]2CO)n1 [Example 41]	1930 to 2030	1800 to 2550
CCCCN(CCCC)C(=O)c1cc(C)n(-c2ccc(-c3cccc(F)c3Cl)cc2C(=O)N2Cc3ccccc3C[C@H]2CO)n1 [Example 42]	7080 to 10200	6370 to 7210
CCCCN(CCCC)C(=O)c1cc(C)n(-c2ccc(-c3cccc(Cl)c3Cl)cc2C(=O)N2Cc3ccccc3C[C@H]2CO)n1 [Example 45]	7160 to 7600	7410 to 7540
CCCCN(CCCC)C(=O)c1cc(C)n(-c2ccc(-c3ccc(OC)c4ccccc34)cc2C(=O)N2Cc3ccccc3C[C@H]2CO)n1 [Example 46]	> 16000	> 16000
CCCCN(CCCC)C(=O)c1cc(C)n(-c2ccc(-c3ccc(S(=O)(=O)N4CCOCC4)cc3)cc2C(=O)N2Cc3ccccc3C[C@H]2CO)n1 [Example 48]	953 to 964	665 to 675
CCCCN(CCCC)C(=O)c1cc(C)n(-c2ccc(-c3cccc4cnccc34)cc2C(=O)N2Cc3ccccc3C[C@H]2CO)n1 [Example 53]	811 to 996	607 to 779
CCCCN(CCCC)C(=O)c1cc(C)n(-c2ccc(-c3cc(Cl)ccc3OC)cc2C(=O)N2Cc3ccccc3C[C@H]2CO)n1 [Example 54]	938 to 952	803 to 845
CCCCN(CCCC)C(=O)c1cc(C)n(-c2ccc(-c3cc(OC)c(OC)c(OC)c3)cc2C(=O)N2Cc3ccccc3C[C@H]2CO)n1 [Example 56]	284 to 296	215 to 238
CCCCN(CCCC)C(=O)c1cc(C)n(-c2ccc(-c3cc(F)cc(OC(C)C)c3)cc2C(=O)N2Cc3ccccc3C[C@H]2CO)n1 [Example 59]	635 to 652	540 to 583
CCCCN(CCCC)C(=O)c1cc(C)n(-c2ccc(-c3cc(F)cc(C(=O)NC)c3)cc2C(=O)N2Cc3ccccc3C[C@H]2CO)n1 [Example 61]	458 to 474	331 to 344
CCCCN(CCCC)C(=O)c1cc(C)n(-c2ccc(-c3cccc(-c4nnc(C)o4)c3)cc2C(=O)N2Cc3ccccc3C[C@H]2CO)n1 [Example 62]	543 to 551	763 to 799
CCCCN(CCCC)C(=O)c1cc(C)n(-c2ccc(-c3ccc(F)cc3Cl)cc2C(=O)N2Cc3ccccc3C[C@H]2CO)n1 [Example 64]	4460 to 4810	3380 to 4000
CCCCN(CCCC)C(=O)c1cc(C)n(-c2ccc(-c3c(OC)cccc3OC)cc2C(=O)N2Cc3ccccc3C[C@H]2CO)n1 [Example 65]	10600 to 12300	6340 to 6900
CCCCN(CCCC)C(=O)c1cc(C)n(-c2ccc(-c3c(-c4ccccc4)noc3C)cc2C(=O)N2Cc3ccccc3C[C@H]2CO)n1 [Example 69]	5450 to 5510	4420 to 4570

The remaining lines, values ahead:

IC50 [1] [nM]	IC50 [2] [nM]	Compound
727 to 738	617 to 657	CCCCN(CCCC)C(=O)c1cc(C)n(-c2ccc(-c3ccc(Cl)c(C(=O)N(C)C)c3)cc2C(=O)N2Cc3ccccc3C[C@H]2CO)n1 [Example 39]
6490 to 7830	4940 to 5880	CCCCN(CCCC)C(=O)c1cc(C)n(-c2ccc(-c3ccccc3C#N)cc2C(=O)N2Cc3ccccc3C[C@H]2CO)n1 [Example 40]
593 to 614	886 to 905	CCCCN(CCCC)C(=O)c1cc(C)n(-c2ccc(-c3cc(C)cc(C)c3)cc2C(=O)N2Cc3ccccc3C[C@H]2CO)n1 [Example 43]
2090 to 2180	2500 to 2960	CCCCN(CCCC)C(=O)c1cc(C)n(-c2ccc(-c3ccc(F)c(F)c3)cc2C(=O)N2Cc3ccccc3C[C@H]2CO)n1 [Example 44]
619 to 631	503 to 589	CCCCN(CCCC)C(=O)c1cc(C)n(-c2ccc(-c3cccc(C)c3)cc2C(=O)N2Cc3ccccc3C[C@H]2CO)n1 [Example 47]
896 to 978	626 to 696	CCCCN(CCCC)C(=O)c1cc(C)n(-c2ccc(-c3cccc(OC)c3)cc2C(=O)N2Cc3ccccc3C[C@H]2CO)n1 [Example 49]
881 to 933	793 to 883	CCCCN(CCCC)C(=O)c1cc(C)n(-c2ccc(-c3ccc(C)c(C)c3)cc2C(=O)N2Cc3ccccc3C[C@H]2CO)n1 [Example 50]
856 to 894	656 to 741	CCCCN(CCCC)C(=O)c1cc(C)n(-c2ccc(-c3ccc(OCC)nc3)cc2C(=O)N2Cc3ccccc3C[C@H]2CO)n1 [Example 51]
567 to 629	471 to 479	CCCCN(CCCC)C(=O)c1cc(C)n(-c2ccc(-c3ccc(OC)c(OC)c3)cc2C(=O)N2Cc3ccccc3C[C@H]2CO)n1 [Example 52]
722 to 764	564 to 617	CCCCN(CCCC)C(=O)c1cc(C)n(-c2ccc(-c3ccc(OC(C)C)cc3)cc2C(=O)N2Cc3ccccc3C[C@H]2CO)n1 [Example 55]
605 to 653	556 to 689	CCCCN(CCCC)C(=O)c1cc(C)n(-c2ccc(-c3ccc4cc(OC)ccc4c3)cc2C(=O)N2Cc3ccccc3C[C@H]2CO)n1 [Example 57]
151 to 152	111 to 112	CCCCN(CCCC)C(=O)c1cc(C)n(-c2ccc(-c3ccc(C(=O)NC)c(Cl)c3)cc2C(=O)N2Cc3ccccc3C[C@H]2CO)n1 [Example 58]
608 to 612	432 to 458	CCCCN(CCCC)C(=O)c1cc(C)n(-c2ccc(-c3ccc(S(C)(=O)=O)cc3)cc2C(=O)N2Cc3ccccc3C[C@H]2CO)n1 [Example 60]
2070 to 2140	1710 to 1850	CCCCN(CCCC)C(=O)c1cc(C)n(-c2ccc(-c3ccc(Cl)cc3)cc2C(=O)N2Cc3ccccc3C[C@H]2CO)n1 [Example 63]
998 to 1060	936 to 976	CCCCN(CCCC)C(=O)c1cc(C)n(-c2ccc(-c3cc(C)cc(F)c3)cc2C(=O)N2Cc3ccccc3C[C@H]2CO)n1 [Example 66]
823 to 857	785 to 804	CCCCN(CCCC)C(=O)c1cc(C)n(-c2ccc(-c3ccc4ccccc4c3)cc2C(=O)N2Cc3ccccc3C[C@H]2CO)n1 [Example 67]
1160 to 1210	1050 to 1100	CCCCN(CCCC)C(=O)c1cc(C)n(-c2ccc(-c3ccc(N(C)C)cc3)cc2C(=O)N2Cc3ccccc3C[C@H]2CO)n1 [Example 68]
